The source of these data is patent US9340477B2, “Process for production of hydroxystilbene derivative having physiological activity” (UHA MIKAKUTO CO., LTD., priority 2010, dated 2016).

Bounds are passed on as bounds.

Series [1] deals with HL-60 cells (human promyelocytic leokemia cells). Nature of the series: Cancer cell growth suppressing action using HL-60 cells (Cell counting kit-8). Format: cell-based. Conditions: 24 hours, 6.3-100 μM, viable cells vs DMSO only, read-out: Cell growth suppressing ability to HL-60 (IC50). Here is the method: Next, in order to see the effect of the hydroxystilbene derivative to cancer cells, cancer cell growth suppressing action using HL-60 cells (human promyelocytic leokemia cells) was tested.
For culturing the HL-60 cells, an enriched culture medium “RPMI-1640” (manufactured by Sigma-Aldrich Japan) containing 4 mM glutamine (L-Glutamine, manufactured by Sigma-Aldrich Japan) and 10% FBS (Foetal Bovine Serum, manufactured by Biological Industries) was used. For the test, a 96-well plate for cell culture (manufactured by Corning Japan) was used, and the HL-60 cells whose number of cells was adjusted to be 5×10^5 cells/mL were seeded at 100 μL per well
As samples, p-coumaric acid, ferulic acid, caffeic acid, sinapic acid, resveratrol, pterostilbene, and the UHA1027, the UHA1028, the UHA1123, the UHA1124, the UHA1125, the UHA7032, the UHA7033, and the UHA9021 which were already purified were used. With respect to the preparation of the samples, each compound was dissolved in DMSO (Wako Pure Chemical Industries, Ltd.), and then adjusted in such a manner that the final concentration in the HL-60 cell culture solutions was 6.3 μM, 12.5 μM, 25 μM, 50 μM, and 100 μM. Then, the test was started.
The number of viable cells was quantified by an MTT method using a “Cell counting kit-8” (manufactured by DOJINDO LABORATORIES). 24 hours after starting the test, 10 μL of a Cell counting kit-8 solution was added to each well, and then sufficiently stirred. After a shading reaction for 1 hour, the absorbancy was measured at a measurement wavelength of 450 nm using a plate leader (Biorad Laboratories, Inc., “BIO-RAD Model 680”). Then, the cell viability was calculated based on the obtained data. The cell viability is a value obtained by setting the number of viable cells of the culture liquid to which only DMSO as a solvent was added to 100%, and then calculating the number of viable cells under the concentration of each compound as a relative value. From the relationship between the concentration of each compound and the cell viability, the concentration IC50 (50% inhibition concentration) at which the cell growth is suppressed by 50% was calculated.
In general terms: Tetrazolium assays rely on reduction of a dye to a coloured formazan, in cell work by metabolically active cells.

Series [2] deals with rat intestine derived lipase. Nature of the series: Lipase inhibitory action test (Lipase kit S). Format: biochemical. Conditions: rat intestine acetone powder lipase, 30° C., 10 minutes reaction. How it is done:
In order to see the inhibitory action to lipase of the hydroxystilbene derivative, an inhibitory action test using rat intestine derived lipase was performed.
As lipase, one obtained by suspending 100 mg of rat derived intestine acetone powder (manufactured by Sigma-Aldrich Japan) in 1 mL of 100 mM citric acid buffer (pH 6.0), stirred at 4° C. for 1 hour, centrifuging the same (at 15000 rpm for 45 minutes at 4° C.), and then diluting the supernatant by 1500 times was used as a lipase solution.
As samples, p-coumaric acid, caffeic acid, sinapic acid, resveratrol, and the UHA1027, the UHA1028, and the UHA9021 which were already purified were used. With respect to the preparation of the samples, each compound was dissolved in DMSO, and then prepared in such a manner as to achieve 0.1 mM, 0.5 mM, 1 mM, 2 mM, and 4 mM.
For measuring the activity, a “Lipase kit S” (Trade name, manufactured by Dainippon Pharmaceutical Co., Ltd.) was used. First, in accordance with a preparation method described in the catalog of the Lipase kit S, a color developing liquid was prepared. Reaction liquids in which 70 μl of the color developing liquid, 2 μl of an esterase inhibitor, 10 μl of the lipase solution, and 10 μl of the samples (Final concentration: 10 μM, 50 μM, 100 μM, 200 μM, 400 μM, and 1000 μM) were mixed were prepared, preincubated at 30° C. for 5 minutes, and then 8 μl of a substrate solution described in the catalog was added. Then, a reaction was started. After reacting for 10 minutes, 150 μl of a reaction stop liquid prepared in accordance with the preparation method described in the catalog of the Lipase kit S was added to stop the reaction. The resultant substance was subjected to a measurement of absorbancy at a wavelength of 415 nm. A reaction liquid to which only DMSO as the solvent of the sample was added was used as a positive control and one to which 10 μl of 100 mM citric acid buffer (pH 6.0) was added instead of the lipase solution was used as a negative control. From the relationship between the lipase inhibition rate calculated based on the data obtained therefrom and the concentration of each compound, the concentration IC50 at which the lipase activity is inhibited by 50% was calculated.

Series [3] deals with SCC-4 cells (human oral cancer cells, ATCC). Briefly: Cancer cell growth suppressing action using SCC-4 oral cancer cells (Cell counting kit-8). In kind it is cell-based. Conditions: 6.3-100 μM, Cell counting kit-8, DMSO negative control, read-out: Cell growth suppressing ability (IC50). Here is the method:
Next, in order to see the effect of the hydroxystilbene derivative to oral cancer cells, cancer cell growth suppressing action using SCC-4 cells (human oral cancer cells, ATCC) was tested.
For culturing the SCC-4 cells, a DMEM/F-12 (1:1) culture medium (manufactured by GIBCO) containing 400 ng/mL hydrocortisone (manufactured by Sigma-Aldrich Japan), 1% antibiotic-antimycotic (manufactured by GIBCO), and 10% FBS (Foetal Bovine Serum, manufactured by ATCC) was used. For the test, a collagen I coat 96 well plate for cell culture (manufactured by Japan BD) was used, and SCC-4 cells whose number of cells was adjusted to be 5×10^5 cells/mL were seeded at 100 μL per well. The cells were cultured under the conditions of 37° C. and 5% CO2 for 24 hours, and were used for the test in a confluent state of 80% or higher.
As samples, p-coumaric acid, ferulic acid, caffeic acid, sinapic acid, resveratrol, pterostilbene, piceatannol, and the UHA1027, the UHA1028, the UHA1123, the UHA1124, the UHA1125, the UHA7032, the UHA7033, the UHA7034, and the UHA9021 which were already purified were used. With respect to the preparation of the samples, each compound was dissolved in DMSO, and then prepared in such a manner as to achieve 0.63 mM, 1.25 mM, 2.5 mM, 5 mM, and 10 mM. The samples were added in such a manner that the final concentration in the SCC-4 cell culture solution was 6.3 μM, 12.5 μM, 25 μM, 50 μM, and 100 μM. Then, the test was started. A sample to which an equivalent amount of only DMSO as the solvent was added was used as a negative control.
The number of viable cells was quantified by an MTT method using a “Cell counting kit-8” in the same manner as in Example 15, and the concentration IC50 at which the cell growth is suppressed by 50% was calculated.

Series [4] is described as follows: Physicochemical properties: solubility in solvents.

`CC(c1ccc(O)c(O)c1)c1c(O)cc(/C=C/c2ccc(O)cc2)cc1O` (single isomer, unassigned) [UHA1027]: in series [1], the IC50 (commonly the point on the concentration scale where inhibition reaches its midpoint) stood at 5.9 µM. In addition, it took 452 µM to reach half-maximal inhibition in series [2] (IC50). For the same compound, the concentration for half-maximal inhibition (IC50) in series [3] stood at 28.9 µM. Besides, in series [4], the “Solubility: DMSO” value is given as “Soluble”, the “Solubility: Chloroform” value was “Soluble”, the “Solubility: Ethanol” value is on record as “Soluble” and the “Solubility: Ethyl acetate” value is reported as “Soluble”. In series [4], the “Solubility: Methanol” value is reported as “Soluble” and the “Solubility: Water” value was “Poorly soluble”.

In the case of `CC(c1ccc(O)cc1)c1c(O)cc(/C=C/c2ccc(O)c(O)c2)cc1O` (single isomer, unassigned) [UHA7034], the IC50 in series [3] is 49.6 µM. Further, in series [4], the “Solubility: DMSO” value is “Soluble”, the “Solubility: Chloroform” value is “Soluble”, the “Solubility: Ethanol” value is on record as “Soluble” and the “Solubility: Ethyl acetate” value is recorded as “Soluble”. Also, in series [4], the “Solubility: Methanol” value was “Soluble” and the “Solubility: Water” value is listed as “Poorly soluble”.

Regarding `CC(c1ccc(O)cc1)c1c(O)cc(/C=C/c2ccc(O)cc2)cc1O` (single isomer, unassigned) [UHA9021], in series [1], the IC50 came out at 43.4 µM. In series [2], this compound came in with a concentration for half-maximal inhibition (IC50) of 331 µM. For the same compound, in series [3], the IC50 is 38.2 µM. Also, in series [4], the “Solubility: DMSO” value is “Soluble”, the “Solubility: Chloroform” value is “Soluble”, the “Solubility: Ethanol” value is on record as “Soluble” and the “Solubility: Ethyl acetate” value was “Soluble”. Also, in series [4], the “Solubility: Methanol” value is recorded as “Soluble” and the “Solubility: Water” value is listed as “Poorly soluble”.

For the compound `O=C(O)/C=C/c1ccc(O)c(O)c1` [Coffeic acid, caffeic acid, reference compound], the IC50 in series [1] is greater than 100 µM; in series [2] it was greater than 1000 µM; in series [3], greater than 100 µM.

Turning to `COc1cc(/C=C/C(=O)O)ccc1O` [Ferulic acid, ferulic acid, reference compound], the IC50 in series [1] and in series [3] was greater than 100 µM throughout.

Turning to `Oc1cc(O)cc(/C=C/c2ccc(O)c(O)c2)c1` [Piceatannol, piceatannol, reference compound], the IC50 in series [3] is greater than 100 µM.

Take `COc1cc(/C=C/c2ccc(O)cc2)cc(OC)c1` [Pterostilbene, pterostilbene, reference compound]: the IC50 was found to be 60.4 µM in series [1] and 73.9 µM in series [3].

As to `Oc1ccc(C=Cc2cc(O)cc(O)c2)cc1` [Resveratrol, resveratrol, reference compound], the IC50 in series [1] was 76.5 µM; in series [2], greater than 1000 µM; in series [3], greater than 100 µM.

Regarding `COc1cc(/C=C/C(=O)O)cc(OC)c1O` [Sinapic acid, sinapic acid, reference compound], the IC50 in series [1] is greater than 100 µM; in series [2], greater than 1000 µM; in series [3] it was greater than 100 µM.

`COc1cc(C(C)c2c(O)cc(/C=C/c3ccc(O)cc3)cc2O)ccc1O` (stereo not shown) [UHA1123]: in series [1], the IC50 worked out at 31.5 µM. The IC50 in series [3] came out at 50.3 µM. In series [4], the “Solubility: DMSO” value is reported as “Soluble”, the “Solubility: Chloroform” value was “Soluble”, the “Solubility: Ethanol” value is given as “Soluble” and the “Solubility: Ethyl acetate” value is “Soluble”. Moreover, in series [4], the “Solubility: Methanol” value is given as “Soluble” and the “Solubility: Water” value was “Poorly soluble”.

Turning to `COc1cc(C(C)c2c(O)cc(O)cc2/C=C/c2ccc(O)cc2)ccc1O` (stereo not shown) [UHA1124], the IC50 in series [1] came to 14.4 µM. In addition, in series [3], the concentration for half-maximal inhibition (IC50) is 17.4 µM. Moreover, in series [4], the “Solubility: DMSO” value is reported as “Soluble”, the “Solubility: Chloroform” value is “Soluble”, the “Solubility: Ethanol” value is “Soluble” and the “Solubility: Ethyl acetate” value is “Soluble”. Further, in series [4], the “Solubility: Methanol” value is “Soluble” and the “Solubility: Water” value was “Poorly soluble”.

In the case of `COc1cc(C(C)c2c(O)cc(/C=C/c3ccc(O)cc3)c(C(C)c3ccc(O)c(OC)c3)c2O)ccc1O` (stereo not shown) [UHA1125], the IC50 in series [1] worked out at 13.4 µM. Further, the IC50 in series [3] was 26.1 µM. In series [4], the “Solubility: DMSO” value is “Soluble”, the “Solubility: Chloroform” value is given as “Soluble”, the “Solubility: Ethanol” value is recorded as “Soluble” and the “Solubility: Ethyl acetate” value is recorded as “Soluble”. Besides, in series [4], the “Solubility: Methanol” value was “Soluble” and the “Solubility: Water” value is “Poorly soluble”.

With `COc1cc(/C=C/c2ccc(O)cc2)c(C(C)c2ccc(O)cc2)c(OC)c1` (stereo not shown) [UHA7032], the 50% inhibitory concentration (IC50) in series [1] was determined as 31 µM. In series [3], the IC50 was determined as 37 µM. Further, in series [4], the “Solubility: DMSO” value is listed as “Soluble”, the “Solubility: Chloroform” value is reported as “Soluble”, the “Solubility: Ethanol” value is reported as “Soluble” and the “Solubility: Ethyl acetate” value was “Soluble”. Further, in series [4], the “Solubility: Methanol” value is recorded as “Soluble” and the “Solubility: Water” value is given as “Poorly soluble”.

Consider `COc1cc(/C=C/c2ccc(O)cc2)cc(OC)c1C(C)c1ccc(O)cc1` (stereo not shown) [UHA7033], for which the IC50 in series [1] was 35.5 µM. For the same compound, the IC50 in series [3] came out at 41.7 µM. Moreover, in series [4], the “Solubility: DMSO” value is given as “Soluble”, the “Solubility: Chloroform” value is recorded as “Soluble”, the “Solubility: Ethanol” value was “Soluble” and the “Solubility: Ethyl acetate” value is on record as “Soluble”. Also, in series [4], the “Solubility: Methanol” value is “Soluble” and the “Solubility: Water” value is on record as “Poorly soluble”.

As for `O=C(O)/C=C/c1ccc(O)cc1` [p-coumaric acid, reference compound], the IC50 in series [1] is greater than 100 µM; in series [2], greater than 1000 µM; in series [3], greater than 100 µM.
